According to patent US7811797B2, “α-isomaltosylglucosaccharide-forming enzyme, process and uses of the same” (Kabushiki Kaisha Hayashibara Seibutsu Kagaku Kenkyujo, priority 2000, dated 2010):
Read-outs that look alike come from different tables or passages of the source.

How the values were obtained:
[1] = test system: α-isomaltosyl-transferring enzyme; assay: Influence of metal ions on the activity of α-isomaltosyl-transferring enzyme (Strain C9); type: biochemical, Bacillus globisporus C9; settings: for Relative activity (%): 1 mM of each metal-ion; for influence on the enzyme activity, in words: 1 mM
Description: The α-isomaltosyl-transferring enzyme was assayed for enzymatic activity by dissolving panose in 100 mM acetate buffer (pH 6.0) to give a concentration of 2% (w/v) for a substrate solution, adding a 0.5 ml of an enzyme solution to 0.5 ml of the substrate solution, enzymatically reacting the mixture solution at 35° C. for 30 min, suspending the reaction mixture by boiling for 10 min, and quantifying glucose, among the cyclotetrasaccharide and glucose formed in the reaction mixture, by the glucose oxidase method. One unit activity of the α-isomaltosyl-transferring enzyme is defined as the enzyme amount that forms one micromole of glucose per minute under the above enzymatic reaction conditions. Throughout the specification, the enzymatic activity of the α-isomaltosyl-transferring enzyme means the unit(s) assayed as above. […]

[2] = test system: α-isomaltosyl-transferring enzyme; type: biochemical, Bacillus globisporus C11; settings: 1 mM of each metal-ion
Description: (§1) The α-isomaltosyl-transferring enzyme was assayed for enzymatic activity by dissolving panose in 100 mM acetate buffer (pH 6.0) to give a concentration of 2% (w/v) for a substrate solution, adding a 0.5 ml of an enzyme solution to 0.5 ml of the substrate solution, enzymatically reacting the mixture solution at 35° C. for 30 min, suspending the reaction mixture by boiling for 10 min, and quantifying glucose, among the cyclotetrasaccharide and glucose formed in the reaction mixture, by the glucose oxidase method. One unit activity of the α-isomaltosyl-transferring enzyme is defined as the enzyme amount that forms one micromole of glucose per minute under the above enzymatic reaction conditions. Throughout the specification, the enzymatic activity of the α-isomaltosyl-transferring enzyme means the unit(s) assayed as above.
(§2) The influence of metal ions on the activity of α-isomaltosyl-transferring enzyme was examined in the presence of 1 mM of each metal-ion according to the assay for the enzyme activity.

[3] = test system: α-isomaltosyl-transferring enzyme; assay: Influence of metal ions on the activity of α-isomaltosyl-transferring enzyme (Strain N75); type: biochemical, Bacillus globisporus N75; settings: for Relative activity (%): 1 mM of each metal-ion; for influence on the enzyme activity, in words: 1 mM
Description: as §1, §2

[4] = test system: α-isomaltosylglucosaccharide-forming enzyme; assay: Influence of metal ions on the activity of α-isomaltosylglucosaccharide-forming enzyme (Strain A19); type: biochemical, Arthrobacter globiformis A19; settings: for Relative activity (%): 1 mM of each metal-ion
[5] = test system: α-isomaltosyl-transferring enzyme; assay: Influence of metal ions on the activity of α-isomaltosyl-transferring enzyme (Strain S1); type: biochemical, Arthrobacter ramosus S1; settings: for Relative activity (%): 1 mM of each metal-ion
Description: as §1, §2

[6] = test system: α-isomaltosylglucosaccharide-forming enzyme; assay: Influence of metal ions on the activity of α-isomaltosylglucosaccharide-forming enzyme (Strain C9); type: biochemical, Bacillus globisporus C9; settings: for Relative activity (%): 1 mM of each metal-ion
Description: (§3) One unit activity of the α-isomaltosylglucosaccharide-forming enzyme is defined as the enzyme amount that forms one micromole of maltose per minute under the above enzymatic reaction conditions. Throughout the specification, the enzymatic activity of the α-isomaltosylglucosaccharide-forming enzyme means the unit(s) assayed as above.
(§4) The influence of metal ions on the activity of α-isomaltosylglucosaccharide-forming enzyme was examined in the presence of 1 mM of each metal-ion according to the assay for the enzyme activity.

[7] = test system: α-isomaltosylglucosaccharide-forming enzyme; assay: Influence of metal ions on the activity of α-isomaltosylglucosaccharide-forming enzyme (Strain C11); type: biochemical, Bacillus globisporus C11; settings: for influence on the enzyme activity, in words: 1 mM; for Relative activity (%): 1 mM of each metal-ion
Description: as §3
The influence of metal ions on the activity of α-isomaltosylglucosaccharide forming enzyme was examined in the presence of 1 mM of each metal-ion according to the assay for the enzyme activity.

[8] = test system: α-isomaltosylglucosaccharide-forming enzyme; assay: Influence of metal ions on the activity of α-isomaltosylglucosaccharide-forming enzyme (Strain N75); type: biochemical, Bacillus globisporus N75; settings: for Relative activity (%): 1 mM of each metal-ion; for influence on the enzyme activity, in words: 1 mM
Description: as §3, §4

[9] = test system: α-isomaltosylglucosaccharide-forming enzyme; assay: Action on saccharides (substrates), Enzyme of Strain C9; type: biochemical, Bacillus globisporus C9; design: key: −: it showed no change; +: it showed a slight reduction of the color spot of the substrate and the formation of other reaction product; ++: it showed a high reduction of the color spot of the substrate and the formation of other reaction product; +++: it showed a substantial disappearance of the substrate spot and the formation of other reaction product; settings: two units/g substrate, substrate 2% (w/v), 30° C., pH 6.0, 24 hours, TLC
Description: (§5) It was tested whether saccharides can be used as substrates for the α-isomaltosylglucosaccharide-forming enzyme. For the purpose, a solution of maltose, maltotriose, maltotetraose, maltopentaose, maltohexaose, maltoheptaose, isomaltose, isomaltotriose, panose, isopanose, trehalose, kojibiose, nigerose, neotrehalose, cellobiose, gentibiose, maltitol, maltotriitol, lactose, sucrose, erlose, selaginose, maltosyl glucoside, or isomaltosyl glucoside was prepared.
(§6) To each of the above solutions was added two units/g substrate of a purified specimen of α-isomaltosylglucosaccharide-forming enzyme from either Bacillus globisporus C9 obtained by the method in Experiment 4-2, Bacillus globisporus C11 obtained by the method in Experiment 7-2, Bacillus globisporus N75 obtained by the method in Experiment 11-2, or Arthrobacter globiformis A19 obtained by the method in Experiment 15-2, and the resulting each solution was adjusted to give a substrate concentration of 2% (w/v) and incubated at 30° C. and pH 6.0, except for using pH 8.4 for the enzyme from Arthrobacter globiformis A19, for 24 hours. The enzyme solutions before and after the enzymatic reactions were respectively analyzed on TLC disclosed in Experiment 1 to confirm whether the enzymes acted on these substrates.

[10] = test system: α-isomaltosylglucosaccharide-forming enzyme; assay: Action on saccharides (substrates), Enzyme of Strain C11; type: biochemical, Bacillus globisporus C11; design: key: −: it showed no change; +: it showed a slight reduction of the color spot of the substrate and the formation of other reaction product; ++: it showed a high reduction of the color spot of the substrate and the formation of other reaction product; +++: it showed a substantial disappearance of the substrate spot and the formation of other reaction product; settings: two units/g substrate, substrate 2% (w/v), 30° C., pH 6.0, 24 hours, TLC
Description: as §5, §6

[11] = test system: α-isomaltosylglucosaccharide-forming enzyme; assay: Action on saccharides (substrates), Enzyme of Strain N75; type: biochemical, Bacillus globisporus N75; design: key: −: it showed no change; +: it showed a slight reduction of the color spot of the substrate and the formation of other reaction product; ++: it showed a high reduction of the color spot of the substrate and the formation of other reaction product; +++: it showed a substantial disappearance of the substrate spot and the formation of other reaction product; settings: two units/g substrate, substrate 2% (w/v), 30° C., pH 6.0, 24 hours, TLC
Description: as §5, §6

[12] = test system: α-isomaltosylglucosaccharide-forming enzyme; assay: Action on saccharides (substrates), Enzyme of Strain A19; type: biochemical, Arthrobacter globiformis A19; design: key: −: it showed no change; +: it showed a slight reduction of the color spot of the substrate and the formation of other reaction product; ++: it showed a high reduction of the color spot of the substrate and the formation of other reaction product; +++: it showed a substantial disappearance of the substrate spot and the formation of other reaction product; settings: two units/g substrate, substrate 2% (w/v), 30° C., pH 8.4, 24 hours, TLC
Description: as §5, §6

[13] = test system: α-isomaltosylglucosaccharide-forming enzyme; assay: Transfer-acceptor specificity, Enzyme of Strain C9; type: biochemical, Bacillus globisporus C9; settings: acceptor 1.6%, PINE-DEX #100 donor 4%, one unit/g donor, 30° C., pH 6.0, 24 hours
Procedure, shortened: (§7)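 Each candidate acceptor at 1.6% was combined with 4% partial starch hydrolysate donor and 1 unit/g donor (d.s.b.) of purified enzyme. Incubation ran 24 h at 30 °C, pH 6.0 for the C9, C11 and N75 enzymes and pH 8.4 for A19. Transfer products were detected by GLC for mono- and disaccharide acceptors and HPLC for trisaccharide acceptors.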

[14] = test system: α-isomaltosylglucosaccharide-forming enzyme; assay: Transfer-acceptor specificity, Enzyme of Strain C11; type: biochemical, Bacillus globisporus C11; settings: acceptor 1.6%, PINE-DEX #100 donor 4%, one unit/g donor, 30° C., pH 6.0, 24 hours
[15] = test system: α-isomaltosylglucosaccharide-forming enzyme; assay: Transfer-acceptor specificity, Enzyme of Strain N75; type: biochemical, Bacillus globisporus N75; settings: acceptor 1.6%, PINE-DEX #100 donor 4%, one unit/g donor, 30° C., pH 6.0, 24 hours
Procedure, shortened: as §7

[16] = test system: α-isomaltosylglucosaccharide-forming enzyme; assay: Transfer-acceptor specificity, Enzyme of Strain A19; type: biochemical, Arthrobacter globiformis A19; settings: acceptor 1.6%, PINE-DEX #100 donor 4%, one unit/g donor, 30° C., pH 8.4, 24 hours
Procedure, shortened: as §7

Structure (SMILES)	Relative activity (%) [1] [%]	Relative activity (%) [2] [%]	Relative activity (%) [3] [%]	Relative activity (%) [4] [%]	Relative activity (%) [5] [%]	Relative activity (%) [6] [%]	influence on the enzyme activity, in words [7]	Relative activity (%) [7] [%]	Relative activity (%) [8] [%]	influence on the enzyme activity, in words [8]	other results
[Al+3] [Al^3+]	103	89	94	37	93						
[Ba+2] [Ba^2+]	102	90	102	99	97	65	also inhibited	65	84		influence on the enzyme activity, in words ([6]; 1 mM): also inhibited
[Ca+2] [Ca^2+]	101	91	100	106	103	115	activated	109	108	activated	influence on the enzyme activity, in words [1]: not activated; influence on the enzyme activity, in words [3]: not activated
[Co+2] [Co^2+]	103	89	92	93	91	100		96	93		
[Cu+2] [Cu^2+]	57	56	15	0	2	15	greatly inhibited	23	7	greatly inhibited	influence on the enzyme activity, in words [1]: also inhibited; influence on the enzyme activity, in words [3]: also inhibited; influence on the enzyme activity, in words ([4]; 1 mM): greatly inhibited; influence on the enzyme activity, in words ([5]; 1 mM): also inhibited
[Fe+2] [Fe^2+]				36					82		Relative activity (%) ([2]; listed as Fe^3+): 88%; Relative activity (%) ([3]; listed as Fe^3+): 90%; Relative activity (%) ([4]; listed as Fe^3+): 35%; Relative activity (%) ([5]; listed as Fe^3+): 75%
[Mn+2] [Mn^2+]	106					111	activated	142	120	activated	
[Ni+2] [Ni^2+]	102	89	91	46	87						
OC[C@H]1O[C@@](CO)(O[C@H]2O[C@H](CO)[C@@H](O)[C@H](O)[C@H]2O)[C@@H](O)[C@@H]1O [Sucrose]											Enzymatic action, Enzyme of Strain C9 [9]: −; Enzymatic action, Enzyme of Strain C11 [10]: −; Enzymatic action, Enzyme of Strain N75 [11]: −; Enzymatic action, Enzyme of Strain A19 [12]: −; Product of transferring reaction, Enzyme of Strain C9 [13]: ++ (a saccharide-transferred product was detected in an amount over ten percent through transfer reaction to acceptor); Product of transferring reaction, Enzyme of Strain C11 [14]: ++ (a saccharide-transferred product was detected in an amount over ten percent through transfer reaction to acceptor); Product of transferring reaction, Enzyme of Strain N75 [15]: ++ (a saccharide-transferred product was detected in an amount over ten percent through transfer reaction to acceptor); Product of transferring reaction, Enzyme of Stain A19 [16]: ++ (a saccharide-transferred product was detected in an amount over ten percent through transfer reaction to acceptor)
OC[C@H]1O[C@H](O[C@H]2O[C@H](CO)[C@@H](O)[C@H](O)[C@H]2O)[C@H](O)[C@@H](O)[C@@H]1O [Trehalose]											Enzymatic action, Enzyme of Strain C9 [9]: −; Enzymatic action, Enzyme of Strain C11 [10]: −; Enzymatic action, Enzyme of Strain N75 [11]: −; Enzymatic action, Enzyme of Strain A19 [12]: −; Product of transferring reaction, Enzyme of Strain C9 [13]: ++ (a saccharide-transferred product was detected in an amount over ten percent through transfer reaction to acceptor); Product of transferring reaction, Enzyme of Strain C11 [14]: ++ (a saccharide-transferred product was detected in an amount over ten percent through transfer reaction to acceptor); Product of transferring reaction, Enzyme of Strain N75 [15]: ++ (a saccharide-transferred product was detected in an amount over ten percent through transfer reaction to acceptor); Product of transferring reaction, Enzyme of Stain A19 [16]: ++ (a saccharide-transferred product was detected in an amount over ten percent through transfer reaction to acceptor)
